Source: ChEMBL document CHEMBL3351608, “2-Phenylindole and Arylsulphonamide: Novel Scaffolds Bactericidal against Mycobacterium tuberculosis” (ACS Med Chem Lett, 2014)
Converted amounts (≈) assume the structure as drawn.

Assays:
[1] = tested on: Mycobacterium tuberculosis; assay: microbe, parasite or virus in culture; conditions: 120 h
Description: Antimicrobial activity against Mycobacterium tuberculosis assessed as growth inhibition after 5 days by microdilution method

[2] = tested on: Mycobacterium tuberculosis; assay: microbe, parasite or virus in culture; conditions: H37Rv, 120 h
Description: Antimicrobial activity against wild-type Mycobacterium tuberculosis H37Rv assessed as growth inhibition after 5 days by microdilution method

[3] = Aqueous solubility of the compound; format: physicochemical; conditions: buffer
[4] = Lipophilicity, log D of the compound; format: physicochemical; conditions: octanol/water
Escherichia coli = assay: Antimicrobial activity against Escherichia coli; format: functional
[5] = tested on: Mycolicibacterium smegmatis; assay: Inhibition of oxidative phosphorylation in Mycobacterium smegmatis membrane vesicles assessed as inhibition of NADH driven ATP synthesis by luciferin/luciferase assay; format: functional
Staphylococcus aureus = assay: Antimicrobial activity against Staphylococcus aureus; format: functional
[6] = target: T1, Enoyl-[acyl-carrier-protein] reductase [NADH] (Mycobacterium tuberculosis, UniProt P9WGR1)
T1 sequence (P9WGR1 whole entry): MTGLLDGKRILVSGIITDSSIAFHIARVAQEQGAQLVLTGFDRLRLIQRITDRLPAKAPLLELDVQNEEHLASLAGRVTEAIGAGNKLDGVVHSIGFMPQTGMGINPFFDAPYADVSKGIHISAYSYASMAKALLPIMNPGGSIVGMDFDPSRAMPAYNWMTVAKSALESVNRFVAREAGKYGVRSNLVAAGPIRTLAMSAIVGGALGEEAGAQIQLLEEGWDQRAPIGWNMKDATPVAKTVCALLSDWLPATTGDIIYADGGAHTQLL
Description: Inhibition of Mycobacterium tuberculosis InhA using dodecyl coA as substrate by LC-MS/MS analysis

[7] = target: DNA gyrase subunit A/DNA gyrase subunit B (Mycobacterium tuberculosis (strain ATCC 25618 / H37Rv), UniProt P9WG45+P9WG47)
Description: Inhibition of Mycobacterium tuberculosis DNA gyrase-mediated relaxed pBR322 DNA supercoiling by gel electrophoresis

Pseudomonas aeruginosa = assay: Antimicrobial activity against Pseudomonas aeruginosa; format: functional
[8] = tested on: Mycobacterium tuberculosis; assay: Bactericidal activity against Mycobacterium tuberculosis H37Rv infected in human THP1 cells assessed as reduction in CFU at 1 to 4 times MIC by time-kill method; format: functional, THP-1
[9] = Cytotoxicity against human THP1 cells assessed as cell viability after 72 hrs by resazurin staining-based fluorimetric analysis; conditions: THP-1 cells
Klebsiella pneumoniae = assay: Antimicrobial activity against Klebsiella pneumoniae; format: functional
[10] = tested on: Mycobacterium tuberculosis; assay: Bactericidal activity against hypoxia induced nonreplicating persistent Mycobacterium tuberculosis H37Rv assessed as concentration required to reduce >/= 2 log10 CFU/ml after 7 days; format: functional
Streptococcus pneumoniae = assay: Antimicrobial activity against Streptococcus pneumoniae; format: functional
[11] = tested on: Mycobacterium tuberculosis; assay: Bactericidal activity against Mycobacterium tuberculosis H37Rv after 5 days; format: functional; conditions: 120 h
[12] = tested on: Mycobacterium tuberculosis; format: functional; conditions: 120 h
Haemophilus influenzae = assay: Antimicrobial activity against Haemophilus influenzae; format: functional

Sequence of DNA gyrase subunit A/DNA gyrase subunit B (P9WG45 whole entry): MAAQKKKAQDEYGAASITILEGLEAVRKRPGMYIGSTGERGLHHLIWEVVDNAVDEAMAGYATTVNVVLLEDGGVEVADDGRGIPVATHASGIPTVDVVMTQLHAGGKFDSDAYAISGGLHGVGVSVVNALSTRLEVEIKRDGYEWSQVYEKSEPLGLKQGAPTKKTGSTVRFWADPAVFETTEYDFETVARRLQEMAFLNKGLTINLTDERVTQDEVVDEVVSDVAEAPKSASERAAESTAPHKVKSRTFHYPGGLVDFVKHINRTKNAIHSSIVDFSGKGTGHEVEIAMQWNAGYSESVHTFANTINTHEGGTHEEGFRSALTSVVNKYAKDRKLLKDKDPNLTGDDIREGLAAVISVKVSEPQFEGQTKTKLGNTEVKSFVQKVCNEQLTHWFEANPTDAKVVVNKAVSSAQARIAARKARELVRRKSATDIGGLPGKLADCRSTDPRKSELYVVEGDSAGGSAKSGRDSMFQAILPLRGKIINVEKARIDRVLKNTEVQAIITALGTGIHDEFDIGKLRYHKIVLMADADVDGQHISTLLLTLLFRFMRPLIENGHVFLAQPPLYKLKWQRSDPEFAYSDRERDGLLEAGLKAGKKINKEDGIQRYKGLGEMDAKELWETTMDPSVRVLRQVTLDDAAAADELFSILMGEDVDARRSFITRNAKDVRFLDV
Sequence of DNA gyrase subunit A/DNA gyrase subunit B (P9WG47 whole entry): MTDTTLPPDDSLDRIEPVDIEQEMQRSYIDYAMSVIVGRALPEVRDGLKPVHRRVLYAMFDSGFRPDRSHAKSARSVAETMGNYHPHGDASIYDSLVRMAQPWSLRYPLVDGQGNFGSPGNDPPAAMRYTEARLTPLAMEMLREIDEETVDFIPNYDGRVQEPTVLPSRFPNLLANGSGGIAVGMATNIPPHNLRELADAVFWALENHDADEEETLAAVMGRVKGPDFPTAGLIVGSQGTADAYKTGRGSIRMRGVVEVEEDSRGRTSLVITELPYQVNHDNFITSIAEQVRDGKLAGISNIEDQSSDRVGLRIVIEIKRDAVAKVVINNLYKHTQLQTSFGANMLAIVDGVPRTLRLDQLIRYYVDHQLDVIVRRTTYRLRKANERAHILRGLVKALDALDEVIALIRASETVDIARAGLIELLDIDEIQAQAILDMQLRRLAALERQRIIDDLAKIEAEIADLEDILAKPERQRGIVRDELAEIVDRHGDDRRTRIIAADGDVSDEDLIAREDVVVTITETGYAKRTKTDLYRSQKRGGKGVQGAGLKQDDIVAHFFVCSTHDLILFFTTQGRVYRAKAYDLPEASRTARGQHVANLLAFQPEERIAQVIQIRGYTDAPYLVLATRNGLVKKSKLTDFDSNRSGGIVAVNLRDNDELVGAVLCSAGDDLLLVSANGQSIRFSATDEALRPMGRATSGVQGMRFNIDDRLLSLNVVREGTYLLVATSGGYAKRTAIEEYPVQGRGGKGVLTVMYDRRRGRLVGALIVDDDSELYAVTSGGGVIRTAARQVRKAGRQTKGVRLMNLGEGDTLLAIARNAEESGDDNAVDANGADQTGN

Question: Which results are given for `CC1COC2(CCN(c3nc(=O)c4cc(C(F)(F)F)cc([N+](=O)[O-])c4s3)CC2)O1` (stereo not drawn)?
Answer: MIC [1]: 0.01 µM (≈ 0.00431 µg/mL); MIC [2]: 0.01 µM (≈ 0.00431 µg/mL)

Question: Which solubility [3] does the source give for `Cc1cccc2c(CN3CCCC3)c(-c3ccccc3)[nH]c12` here?
Answer: 752 µM (≈ 218 µg/mL)

Question: And the logD [4]?
Answer: 1.8

Question: Which solubility [3] does the source give for `COCCN(C1CCN(Cc2c(-c3ccccc3)[nH]c3c(C)cccc23)C1)S(C)(=O)=O` (stereo not drawn) here?
Answer: 5.4 µM (≈ 2.38 µg/mL)

Question: And the MIC (Escherichia coli)?
Answer: > 200 µM

Question: And the IC50 [5]?
Answer: 15.6 µM

Question: What about the MIC (Staphylococcus aureus) of the same compound?
Answer: > 200 µM

Question: What about the IC50 [6] of the same compound?
Answer: > 100 µM

Question: And the IC50 [7]?
Answer: > 100 µM

Question: And the MIC (Pseudomonas aeruginosa)?
Answer: > 200 µM

Question: What about the “fold change (FC)” value [8] of the same compound?
Answer: 1.5

Question: What about the logD [4] of the same compound?
Answer: 3

Question: And the CC50 at 72 h [9]?
Answer: > 64 µM

Question: And the MIC (Klebsiella pneumoniae)?
Answer: > 200 µM

Question: What about the Activity [10] of the same compound?
Answer: 3.1 µM

Question: And the MIC [1]?
Answer: 0.8 µM (≈ 0.353 µg/mL)

Question: What about the MIC (Streptococcus pneumoniae) of the same compound?
Answer: > 200 µM

Question: And the MIC [2]?
Answer: 0.8 µM (≈ 0.353 µg/mL)

Question: And the MBC [11]?
Answer: 3.8 µM (≈ 1.68 µg/mL)

Question: And the MIC [12]?
Answer: 0.8 µM (≈ 0.353 µg/mL)

Question: And the MIC (Haemophilus influenzae)?
Answer: > 200 µM

Question: Which results are given for `COCCN(C1CCN(Cc2c(-c3ccccc3)[nH]c3c(OC)cccc23)C1)S(C)(=O)=O` (stereo not drawn)?
Answer: solubility [3]: 103 µM (≈ 47.1 µg/mL); logD [4]: 2.8

Question: Which results are given for `O=S(=O)(NC1CCN(Cc2ccncc2)CC1)c1ccc(-n2cccn2)cc1`?
Answer: solubility [3]: 149 µM (≈ 59.2 µg/mL); MIC (Escherichia coli): > 200 µM; IC50 [5]: > 70 µM; MIC (Staphylococcus aureus): > 200 µM; IC50 [6]: > 100 µM; IC50 [7]: > 100 µM; MIC (Pseudomonas aeruginosa): > 200 µM; logD [4]: 2.6; CC50 at 72 h [9]: > 64 µM; MIC (Klebsiella pneumoniae): > 200 µM; Activity [10]: 25 µM; MIC [1]: 1.6 µM (≈ 0.636 µg/mL); MIC (Streptococcus pneumoniae): > 200 µM; MIC [2]: 3.3 µM (≈ 1.31 µg/mL); MBC [11]: 50 µM (≈ 19.9 µg/mL); MIC [12]: 3.3 µM (≈ 1.31 µg/mL); MIC (Haemophilus influenzae): > 200 µM

Question: What does the source list for `Cc1cc(-n2cccn2)ccc1S(=O)(=O)NC1CCN(Cc2ccncc2)CC1`?
Answer: solubility [3]: 66 µM (≈ 27.2 µg/mL); MIC (Escherichia coli): > 200 µM; MIC (Staphylococcus aureus): > 200 µM; MIC (Pseudomonas aeruginosa): > 200 µM; fold change (FC) [8]: 1.5; logD [4]: 2.3; CC50 at 72 h [9]: 32 µM; MIC (Klebsiella pneumoniae): > 200 µM; Activity [10]: >200 µM; MIC (Streptococcus pneumoniae): > 200 µM; MIC [2]: 0.8 µM (≈ 0.329 µg/mL); MBC [11]: 1.6 µM (≈ 0.658 µg/mL); MIC [12]: 0.8 µM (≈ 0.329 µg/mL); MIC (Haemophilus influenzae): > 200 µM

Question: Which solubility [3] does the source give for `O=S(=O)(NC1CCN(Cc2ccncc2)CC1)c1ccc(-n2cccn2)cn1` here?
Answer: 1000 µM (≈ 398 µg/mL)

Question: And the logD [4]?
Answer: 1.7

Question: What does the source list for `Cc1cccc2c(CN3CCC(NS(C)(=O)=O)C3)c(-c3ccccc3)[nH]c12` (racemic)?
Answer: MIC (Escherichia coli): > 200 µM; MIC (Staphylococcus aureus): > 200 µM; MIC (Pseudomonas aeruginosa): > 200 µM; CC50 at 72 h [9]: 32 µM; MIC (Klebsiella pneumoniae): > 200 µM; Activity [10]: >200 µM; MIC (Streptococcus pneumoniae): > 200 µM; MIC [2]: 1.6 µM (≈ 0.614 µg/mL); MBC [11]: 1.6 µM (≈ 0.614 µg/mL); MIC [12]: 1.6 µM (≈ 0.614 µg/mL); MIC (Haemophilus influenzae): > 200 µM

Question: Which IC50 [5] does the source give for `COc1nc2ccc(Br)cc2cc1[C@@H](c1ccccc1)[C@@](O)(CCN(C)C)c1cccc2ccccc12` [BEDAQUILINE] here?
Answer: 0.001 µM

Question: Which results are given for `NNC(=O)c1ccncc1` [ISONIAZID]?
Answer: MIC [1]: > 7.5 µM; MIC [2]: 0.5 µM (≈ 0.0686 µg/mL)

Question: What does the source list for `CO[C@H]1/C=C/O[C@@]2(C)Oc3c(C)c(O)c4c(O)c(c(/C=N/N5CCN(C)CC5)c(O)c4c3C2=O)NC(=O)/C(C)=C\C=C\[C@H](C)[C@H](O)[C@@H](C)[C@@H](O)[C@@H](C)[C@H](OC(C)=O)[C@@H]1C` [RIFAMPIN]?
Answer: MIC [1]: 0.003 µM (≈ 0.00247 µg/mL); MIC [2]: 0.003 µM (≈ 0.00247 µg/mL)
